Reference: patent publication US7157083B2, “Compositions and methods for treating retroviral infections” (priority 1998, dated 2007)

Tested on: clinical isolate ROJO (low passage HIV-1) in human PBMCs
Experiment: Study 1 PBMC assay: reverse transcriptase activity after ROJO infection (Treatments A, B, C)
Type: cell-based
Procedure: Percent virus control (% VC) in the following tables is the mean RT activity (cpm) as a percentage of a virus control. Percent cell control (% CC) is the mean XTT absorbance as a percentage of a cell control.
Peripheral blood monocular cells (PBMCs) are obtained from normal hepatitis and HIV-1 negative donors by ficoll hypaque gradient separation. Briefly, anti-coagulated blood is diluted 1:1 with Dulbecco's phosphate buffered saline without Ca^++ and Mg^++ (PBS) and layered over 14 mL of Lymphocyte separation media in a 50 ml centrifuge tube. Tubes are then centrifuged for 30 minutes at 600× g. Banded PBLs are gently aspirated from the resulting interface and subsequently washed 2× with PBS by low speed centrifugation. The mononuclear cells are counted, viability determined by Trypan Blue dye exclusion and resuspended in RPM1640 medium supplemented with 15% FBS (heat inactivated), 2 mM L-glutamine, 100 U/mL penicillin, 100 μg/mL streptomycin, and 10 μg/mL gentamycin with 2 μg/mL phytohemagluttin (PHA) at 1×10^6 cells/mL. The cells are cultured for 48 to 72 h at 37° C., 5% CO2 Following incubation, cells are collected by centrifugation, washed and resuspended in RPMI 1640 supplemented with 15% FBS (heat inactivated), 2 Mm L-glutamine, 100 U/mL penicillin, 100 μg/mL streptomycin, and 10 μg/mL gentamycin with 20 U/mL recombinant IL-2 (R & D Systems, Minneapolis, Minn.). IL-2 is included in the culture medium to maintain the cell division initiated by the PHA mitogenic stimulation. The cultures are then maintained until use by ½ culture volume change with fresh IL-2 containing medium every 3 days.
Human peripheral blood mononuclear cells from a minimum of 2 donors, that have been blasted with PHA and IL-2, are counted, viability determined by Trypan Blue dye exclusion and mixed in equal ratios. Pooled donors are used to minimize the variability observed between individual donors which results from quantitative and qualitative differences in HIV infection and overall response to the PHA and IL-2 of primary lymphocyte populations. The cells are resuspended at 1×10^6 cells/mL in RPMI 1640 without phenol red supplemented with 15% Fetal Bovine Serum (heat inactivated), 2 mM L-glutamine, 100 U/mL penicillin, 100 μg/mL streptomycin, 10 μg/mL gentamycin and IL-2 (20 U/mL, R&D Systems, Minneapolis, Minn.). Fifty microliters of cells are then distributed to the inner 60 wells of a 96 well round bottom Microtiter culture plate in a standard format developed by the Infectious Disease Research department of Southern Research Institute. Each plate contains cell control wells (cells only), virus control wells (cell plus virus), and experimental wells (drug plus cells plus virus).
Using an in-house computer program, IC50 (50% inhibition of virus replication), TC50 (50% reduction in cell viability) and a therapeutic index (TI, […]) were determined. AZT was used as a relevant positive control compound for the individual assays.
This study compares the ability of hyaluronidase to AZT to lower viral replication as measured by reverse transcriptase levels. RT was measured on days 7, 14, and 21. Three different treatment regimens were used in the comparative study (Treatments A, B and C).
Treatment A. Normal mixed PHA blasted human PBMCs (5×10e4/well) were pretreated with drug every 48 hours for 3 doses. On day 6 of pretreatment, cells were infected with clinical isolate ROJO. 48 hours post infection, treatment with drugs continued for an additional 3 treatments. Samples for assay were collected on D7 (day 7), 14, 21, post infection, frozen and later analyzed for reverse transcriptase.
Treatment B. Normal mixed PHA blasted human PBMCs (as above) were plated in 96 wells and allowed to incubate for 48 hours (cells were set at same time as treatment A from same pool). Drug pretreatment started on day 2 and was repeated on day 4. On day 6, cell were infected as in treatment A, with concurrent addition of drug for a total of 3 treatments. […]

Substance: Hyaluronidase
- RT activity % VC (Treatment A, 0.00165 units/mL, Day 7): 131.1%
- RT activity % VC (Treatment A, 0.00165 units/mL, Day 14): 21.6%
- RT activity % VC (Treatment A, 0.00165 units/mL, Day 21): 24.4%
- RT activity % VC (Treatment A, 0.00515 units/mL, Day 7): 49.5%
- RT activity % VC (Treatment A, 0.00515 units/mL, Day 14): 14.9%
- RT activity % VC (Treatment A, 0.00515 units/mL, Day 21): 5.1%
- RT activity % VC (Treatment A, 0.01611 units/mL, Day 7): 1.1%
- RT activity % VC (Treatment A, 0.01611 units/mL, Day 14): 0.1%
- RT activity % VC (Treatment A, 0.01611 units/mL, Day 21): 0.6%
- RT activity % VC (Treatment A, 0.05033 units/mL, Day 7): 1.0%
- RT activity % VC (Treatment A, 0.05033 units/mL, Day 14): 0.4%
- RT activity % VC (Treatment A, 0.05033 units/mL, Day 21): 0.9%
- RT activity % VC (Treatment A, 0.15729 units/mL, Day 7): 0.7%
- RT activity % VC (Treatment A, 0.15729 units/mL, Day 14): 0.2%
- RT activity % VC (Treatment A, 0.15729 units/mL, Day 21): 0.7%
- RT activity % VC (Treatment A, 0.49152 units/mL, Day 7): 1.0%
- RT activity % VC (Treatment A, 0.49152 units/mL, Day 14): 0.3%
- RT activity % VC (Treatment A, 0.49152 units/mL, Day 21): 0.4%
- RT activity % VC (Treatment A, 1.536 units/mL, Day 7): 1.6%
- RT activity % VC (Treatment A, 1.536 units/mL, Day 14): 0.2%
- RT activity % VC (Treatment A, 1.536 units/mL, Day 21): 1.2%
- RT activity % VC (Treatment A, 4.8 units/mL, Day 7): 1.1%
- RT activity % VC (Treatment A, 4.8 units/mL, Day 14): 0.3%
- RT activity % VC (Treatment A, 4.8 units/mL, Day 21): 1.0%
- RT activity % VC (Treatment A, 15 units/mL, Day 7): 1.1%
- RT activity % VC (Treatment A, 15 units/mL, Day 14): 0.7%
- RT activity % VC (Treatment A, 15 units/mL, Day 21): 1.1%
- RT activity % VC (Treatment B, 0.00165 units/mL, Day 7): 47.1%
- RT activity % VC (Treatment B, 0.00165 units/mL, Day 14): 10.5%
- RT activity % VC (Treatment B, 0.00165 units/mL, Day 21): 5.1%
- RT activity % VC (Treatment B, 0.00515 units/mL, Day 7): 6.0%
- RT activity % VC (Treatment B, 0.00515 units/mL, Day 14): 1.0%
- RT activity % VC (Treatment B, 0.00515 units/mL, Day 21): 0.8%
- RT activity % VC (Treatment B, 0.01611 units/mL, Day 7): 3.6%
- RT activity % VC (Treatment B, 0.01611 units/mL, Day 14): 0.6%
- RT activity % VC (Treatment B, 0.01611 units/mL, Day 21): 0.2%
- RT activity % VC (Treatment B, 0.05033 units/mL, Day 7): 3.0%
- RT activity % VC (Treatment B, 0.05033 units/mL, Day 14): 0.4%
- RT activity % VC (Treatment B, 0.05033 units/mL, Day 21): 0.9%
- RT activity % VC (Treatment B, 0.15729 units/mL, Day 7): 2.8%
- RT activity % VC (Treatment B, 0.15729 units/mL, Day 14): 0.4%
- RT activity % VC (Treatment B, 0.15729 units/mL, Day 21): 0.5%
- RT activity % VC (Treatment B, 0.49152 units/mL, Day 7): 4.9%
- RT activity % VC (Treatment B, 0.49152 units/mL, Day 14): 0.4%
- RT activity % VC (Treatment B, 0.49152 units/mL, Day 21): 0.3%
- RT activity % VC (Treatment B, 1.536 units/mL, Day 7): 4.1%
- RT activity % VC (Treatment B, 1.536 units/mL, Day 14): 0.2%
- RT activity % VC (Treatment B, 1.536 units/mL, Day 21): 0.4%
- RT activity % VC (Treatment B, 4.8 units/mL, Day 7): 1.9%
- RT activity % VC (Treatment B, 4.8 units/mL, Day 14): 0.5%
- RT activity % VC (Treatment B, 4.8 units/mL, Day 21): 1.2%
- RT activity % VC (Treatment B, 15 units/mL, Day 7): 3.4%
- RT activity % VC (Treatment B, 15 units/mL, Day 14): 0.5%
- RT activity % VC (Treatment B, 15 units/mL, Day 21): 0.7%
- RT activity % VC (Treatment C, 0.00165 units/mL, Day 7): 104.0%
- RT activity % VC (Treatment C, 0.00165 units/mL, Day 14): 42.4%
- RT activity % VC (Treatment C, 0.00165 units/mL, Day 21): 23.5%
- RT activity % VC (Treatment C, 0.00515 units/mL, Day 7): 100.4%
- RT activity % VC (Treatment C, 0.00515 units/mL, Day 14): 26.0%
- RT activity % VC (Treatment C, 0.00515 units/mL, Day 21): 13.2%
- RT activity % VC (Treatment C, 0.01611 units/mL, Day 7): 3.9%
- RT activity % VC (Treatment C, 0.01611 units/mL, Day 14): 1.8%
- RT activity % VC (Treatment C, 0.01611 units/mL, Day 21): 1.0%
- RT activity % VC (Treatment C, 0.05033 units/mL, Day 7): 3.4%
- RT activity % VC (Treatment C, 0.05033 units/mL, Day 14): 0.4%
- RT activity % VC (Treatment C, 0.05033 units/mL, Day 21): 0.6%
- RT activity % VC (Treatment C, 0.15729 units/mL, Day 7): 3.0%
- RT activity % VC (Treatment C, 0.15729 units/mL, Day 14): 0.2%
- RT activity % VC (Treatment C, 0.15729 units/mL, Day 21): 0.8%
- RT activity % VC (Treatment C, 0.49152 units/mL, Day 7): 4.1%
- RT activity % VC (Treatment C, 0.49152 units/mL, Day 14): 0.2%
- RT activity % VC (Treatment C, 0.49152 units/mL, Day 21): 0.4%
- RT activity % VC (Treatment C, 1.536 units/mL, Day 7): 2.7%
- RT activity % VC (Treatment C, 1.536 units/mL, Day 14): 0.4%
- RT activity % VC (Treatment C, 1.536 units/mL, Day 21): 0.6%
- RT activity % VC (Treatment C, 4.8 units/mL, Day 7): 4.6%
- RT activity % VC (Treatment C, 4.8 units/mL, Day 14): 0.4%
- RT activity % VC (Treatment C, 4.8 units/mL, Day 21): 0.7%
- RT activity % VC (Treatment C, 15 units/mL, Day 7): 3.2%
- RT activity % VC (Treatment C, 15 units/mL, Day 14): 0.6%
- RT activity % VC (Treatment C, 15 units/mL, Day 21): 0.7%
- reduction in viral replication as measured by reverse transcriptase, compared to AZT (Treatments A, B and C, days 7, 14, and 21): greater reduction in viral replication
